Results: patent publication US20090036444A1, “5-5-Membered fused heterocyclic compound and use thereof as HCV polymerase inhibitor” (priority 2003, published 2009)
Counter-ions that a name gives are not always drawn. Like-named read-outs stand apart in the source and are kept apart here.

Columns and labels:
[1] = target: T1, HCV polymerase H544 1b 3X (Hepatitis C virus genotype 1b, UniProt P26663); assay: Assay of enzyme (HCV polymerase) inhibitory activity, H544 1b 3X; type: biochemical, HCV BK strain
T1 construct: a region encoding NS5B (J Virol 1991 March, 65(3), 1105-13, 544 amino acids after deletion of 47 amino acids on the C-terminal); 6 His (C); made in house; host or cells: Escherichia coli
T1 sequence (P26663 2420-2963): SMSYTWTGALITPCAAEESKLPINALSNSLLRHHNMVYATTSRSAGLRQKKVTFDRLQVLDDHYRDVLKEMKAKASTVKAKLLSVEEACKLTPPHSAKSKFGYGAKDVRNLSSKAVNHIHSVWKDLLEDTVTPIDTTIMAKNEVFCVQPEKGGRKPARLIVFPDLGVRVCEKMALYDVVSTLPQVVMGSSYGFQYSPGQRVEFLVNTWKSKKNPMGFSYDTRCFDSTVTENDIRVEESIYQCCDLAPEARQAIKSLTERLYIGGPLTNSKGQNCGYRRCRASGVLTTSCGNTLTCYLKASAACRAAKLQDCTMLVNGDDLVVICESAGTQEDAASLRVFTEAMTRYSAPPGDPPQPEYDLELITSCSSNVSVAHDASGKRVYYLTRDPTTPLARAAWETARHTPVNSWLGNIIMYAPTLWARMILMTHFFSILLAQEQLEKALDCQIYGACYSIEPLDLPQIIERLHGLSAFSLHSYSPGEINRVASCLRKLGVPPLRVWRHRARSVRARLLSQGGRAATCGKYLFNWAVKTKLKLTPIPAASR
Excerpt: The evaluation of the HCV polymerase inhibitory activity of the compound of the present invention is explained in the following. This polymerase is an enzyme coded for by the non-structural protein region called NS5B on the genome RNA of HCV (EMBO J., 15:12-22, 1996).
Using, as a template, a cDNA clone corresponding to the full length genome RNA of HCV BK strain obtained from the blood of a patient with hepatitis C, a region encoding NS5B (J Virol 1991 March, 65(3), 1105-13, 544 amino acids after deletion of 47 amino acids on the C-terminal) was amplified by PCR. The objective gene was prepared by adding a 6 His tag {base pair encoding 6 continuous histidine (His)} to the 3′ end thereof and transformed to Escherichia coli. The Escherichia coli capable of producing the objective protein was cultured. The obtained cells were suspended in a buffer solution and crushed in a microfluidizer. The supernatant was obtained by centrifugation and applied to various column chromatographys {mono-S, Sephacryl S-200 (Pharmacia)}, inclusive of metal chelate chromatography, to give a standard enzyme product.
Using a synthetic primer designed based on the sequence of HCV genomic 3′ untranslated region, a DNA fragment (148 bp) containing polyU and 3′X sequence was entirely synthesized and cloned into plasmid pBluescript SK II (+) (Stratagene). The cDNA encoding full length NS5B, which was prepared in i) above, was digested with restriction enzyme KpnI to give a cDNA fragment containing the nucleotide sequence of from the restriction enzyme cleavage site to the termination codon. This cDNA fragment was inserted into the upstream of 3′ untranslated region of the DNA in pBluescript SK II(+) and ligated. The about 450 bp inserted DNA sequence was used as a template in the preparation of substrate RNA. This plasmid was cleaved immediately after the 3′X sequence, linearized and purified by phenol-chloroform treatment and ethanol precipitation to give DNA.
RNA was synthesized (37° C., 3 hr) by run-off method using this purified DNA as a template, a promoter of pBluescript SK II(+), MEGAscript RNA synthesis kit (Ambion) and T7 RNA polymerase. DNase I was added and the mixture was incubated for 1 hr. The template DNA was removed by decomposition to give a crude RNA product. This crude product was treated with phenol-chloroform and purified by ethanol precipitation to give the objective substrate RNA.
This RNA was applied to formaldehyde denaturation agarose gel electrophoresis to confirm the quality thereof and preserved at −80° C.
A test substance (compound of the present invention) and a reaction mixture (30 μl) having the following composition were reacted at 25° C. for 90 min. 10% Trichloroacetic acid at 4° C. and 1% sodium pyrophosphate solution (150 μl) were added to this reaction mixture to stop the reaction. The reaction mixture was left standing in ice for 15 min to insolubilize RNA. This RNA was trapped on a glass filter (Whatman GF/C and the like) upon filtration by suction. This filter was washed with a solution containing 1% trichloroacetic acid and 0.1% sodium pyrophosphate, washed with 90% ethanol and dried. A liquid scintillation cocktail (Packard) was added and the radioactivity of RNA synthesized by the enzyme reaction was measured on a liquid scintillation counter.
The HCV polymerase inhibitory activity (IC50) of the compound of the present invention was calculated from the values of radioactivity of the enzyme reaction with and without the test substance.
The results are shown in Table 18, wherein each symbol means that IC50 falls within the following range.
Reaction mixture: HCV polymerase (0.5 μg/ml) obtained in i), substrate RNA (5 μg/ml) obtained in ii), ATP (50 μM), GTP (50 μM), CTP (50 μM), UTP (2 μM), [5,6-^3H] UTP (46 Ci/mmol (Amersham), 1 μCi) 20 mM Tris-HCl (pH 7.5), EDTA (1 mM), MgCl2 (5 mM), NaCl (50 mM), DTT (1 mM), BSA (0.01%)

[2] = target: T2, HCV polymerase H544 1a 3X (UniProt P27958); assay: Assay of enzyme (HCV polymerase) inhibitory activity, H544 1a 3X; type: biochemical
T2 construct: fused on or other part: 6 His tag at the C-terminus, for the BK (1b) enzyme

[3] = 25° C., 90 min, [5,6-3H]UTP incorporation, read-out: H544 1a 3X IC50
[4] = read-out: H544 1a 3X IC50, 25° C., 90 min, [5,6-3H]UTP incorporation

SMILES | IC50 [1] [nM] | IC50 [2, 3] [nM] | IC50 [2, 4] [nM]
Cn1c(-c2ccccc2OCc2ccccc2)c(C2CCCCC2)c2sc(C(=O)O)cc21 [Example 35, 5-(2-benzyloxyphenyl)-6-cyclohexyl-4-methyl-4H-thieno[3,2-b]pyrrole-2-carboxylic acid] | 100 to 1000 | 100 to 1000 | –
Cn1c(-c2ccc(OCc3cc(N4CCCC4=O)ccc3N3CCN(S(C)(=O)=O)CC3)cc2)c(C2CCCCC2)c2sc(C(=O)O)cc21 [Example 18, 6-cyclohexyl-5-{4-[2-(4-methanesulfonylpiperazin-1-yl)-5-(2-oxopyrrolidin-1-yl)benzyloxy]phenyl}-4-methyl-4H-thieno[3,2-b]pyrrole-2-carboxylic acid hydrochloride] | < 100 | < 100 | –
CN(CC(=O)N1CCCCC1)C(=O)Cn1c(-c2ccc(OCc3ccccc3)cc2)c(C2CCCCC2)c2sc(C(=O)O)cc21 [Example 50, 5-(4-benzyloxyphenyl)-6-cyclohexyl-4-{[N-methyl-N-(2-oxo-2-piperidinoethyl)carbamoyl]methyl}-4H-thieno[3,2-b]pyrrole-2-carboxylic acid] | < 100 | < 100 | –
COc1ccc(-c2c(C3CCCCC3)c3sc(C(=O)O)cc3n2CC(=O)NC(C)(C)C)cc1 [Example 33, 4-(tert-butylcarbamoylmethyl)-6-cyclohexyl-5-(4-methoxyphenyl)-4H-thieno[3,2-b]pyrrole-2-carboxylic acid] | 100 to 1000 | < 100 | –
CN(CCN1CCOCC1)CCn1c(-c2ccc(OCc3ccccc3)cc2)c(C2CCCCC2)c2sc(C(=O)O)cc21 [Example 58, 5-(4-benzyloxyphenyl)-6-cyclohexyl-4-{2-[N-methyl-N-(2-morpholinoethyl)amino]ethyl}-4H-thieno[3,2-b]pyrrole-2-carboxylic acid dihydrochloride] | 100 to 1000 | – | 100 to 1000
CC(C)C(=O)N(C)c1ccc(N2CCOCC2)c(COc2ccc(-c3c(C4CCCCC4)c4sc(C(=O)O)cc4n3C)cc2)c1 [Example 30, 6-cyclohexyl-5-{4-[5-(N-isobutyryl-N-methylamino)-2-morpholinobenzyloxy]phenyl}-4-methyl-4H-thieno[3,2-b]pyrrole-2-carboxylic acid hydrochloride] | < 100 | < 100 | –
COc1ccc(-c2c(C3CCCCC3)c3sc(C(=O)O)cc3n2CC(=O)N(C)C)cc1 [Example 21, 6-cyclohexyl-4-dimethylcarbamoylmethyl-5-(4-methoxyphenyl)-4H-thieno[3,2-b]pyrrole-2-carboxylic acid] | < 100 | 100 to 1000 | –
O=C(O)c1cc2c(s1)c(C1CCCCC1)c(-c1ccc(OCc3ccccc3)cc1)n2CCN1CCN(C2CCCCC2)CC1 [Example 53, 5-(4-benzyloxyphenyl)-6-cyclohexyl-4-[2-(4-cyclohexylpiperazin-1-yl)ethyl]-4H-thieno[3,2-b]pyrrole-2-carboxylic acid dihydrochloride] | 100 to 1000 | – | 100 to 1000
